We go through 1 compound from article PMC6768106, “The crystal structure of AcrR from Mycobacterium tuberculosis reveals a one‐component transcriptional regulation mechanism” (FEBS Open Bio, 2019).

This test has as its target AcrR (Mycobacterium tuberculosis, UniProt O07229).

Sequence of AcrR (O07229 entry or part of it): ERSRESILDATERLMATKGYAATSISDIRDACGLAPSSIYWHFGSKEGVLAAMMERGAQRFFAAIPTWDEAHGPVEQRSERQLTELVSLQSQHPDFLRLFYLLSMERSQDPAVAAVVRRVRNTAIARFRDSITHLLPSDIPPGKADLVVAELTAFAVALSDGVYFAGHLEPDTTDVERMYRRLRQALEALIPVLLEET

Take `CCCCCCCCCCCCCCCC(=O)O` [palmitate]: the “STD-NMR; also EMSA (promoter DNA release) and CD titration” value is “which reveals the binding between AcrR and palmitate”.
